Series [1] can be described thus: Distribution coefficient (logD), octanol/PBS. The conditions noted are these: n = 5. The format is physicochemical. As for the experimental part: A volume of 500 µL PBS including 0.5 MBq radioligand ([^89Zr]Zr-FSC(succ)2AA or [^89Zr]Zr-FSC(succ)3) was combined with 500 µL octanol. The mixture was vortexed for 15 min, and centrifuged for 2 min at 2000 rcf. Subsequently, 50 µL aliquots of the aqueous and the octanol layer were collected, measured in a 2480 Wizard^2 Automatic Gamma Counter (Perkin Elmer, Vienna, Austria), and distribution coefficient (logD) values were calculated using Excel 2013 (n = 5) (Redmond, WA, USA).

Series [2] is described as follows: Protein binding assay in fresh human serum (size exclusion spin column). The format is in vitro ADME. Particulars: 37 °C, incubation time 7 days. As for the experimental part:
The protein binding property was evaluated by incubating [^89Zr]Zr-FSC(succ)2AA or [^89Zr]Zr-FSC(succ)3 for seven days at 37 °C in fresh human serum. Subsequently, 30 µL of the solution was passed through a size exclusion spin column (MicroSpinG-50 column, GE Healthcare, Buckinghamshire, UK) via centrifugation at 2000 rcf for 2 min. Protein binding of the complexes in triplicate was determined by measuring the activity on the column (non-protein bound) and the activity in the eluate (protein bound) in the gamma counter.

The nature of series [3]: Stability assay in human serum. The format is in vitro ADME. The conditions noted are these: 37 °C, incubation time 7 days. As for the experimental part: (§1) Determination of the stability of [^89Zr]Zr-DFO, [^89Zr]Zr-TAFC, [^89Zr]Zr-FSC(succ)2AA and [^89Zr]Zr-FSC(succ)3 was carried out by incubating the radioligands in PBS, a 1000-fold molar excess of ethylenediaminetetraacetic acid (EDTA) solution (radioligand vs. […] Then, the precipitate was washed three times using CH3CN before analysis.

Series [4] can be described thus: Acid dissociation study in 1000-fold molar excess of EDTA solution. The format is physicochemical. As for the experimental part: as §1
The nature of series [5]: Transchelation study: 89Zr-FSC derivative complexes with 1000-fold molar excess of DFO. Particulars: RT, after 7 days. The format is physicochemical. As for the experimental part:
(§2) [^89Zr]Zr-DFO (50 µL) was mixed with a 1000-fold molar excess of either FSC(succ)2AA or FSC(succ)3 and [^89Zr]Zr-TAFC (or [^89Zr]Zr-FSC(succ)2AA, [^89Zr]Zr-FSC(succ)3) (50 µL each) was mixed with a 1000-fold molar excess of DFO and incubated for seven days at RT. At selected time points, aliquots of the solutions were analyzed in triplicate directly via analytical RP-HPLC. The transchelation was determined by the ratio of [^89Zr]Zr-DFO and [^89Zr]Zr-FSC derivatives.

A short description of series [6]: Biodistribution study in BALB/c mice. The conditions noted are these: i.v., 6 h p.i., n = 4. The format is in vivo. As for the experimental part: For the evaluation of biodistribution, four female BALB/c mice (Charles River Laboratories, Sulzfeld, Germany) were intravenously injected with [^89Zr]Zr-FSC(succ)3 (1.5 MBq/mouse, 4.8 µg precursor) or [^89Zr]Zr-TAFC (1.5 MBq/mouse, 4 µg) into the tail vein and sacrificed by cervical dislocation at 6 h post injection (p.i.). Organs (spleen, pancreas, stomach, intestine, kidney, liver, heart, and lung), blood, muscle tissue, and bone were dissected, weighed and then measured in the gamma counter to calculate the percentage of injected dose per gram of tissue (% ID/g). Statistical analysis was performed using an independent two-population t-test (significance level p = 0.05) and Origin 6.1 software (Northampton, MA, USA).

Series [7] is described as follows: MicroPET/CT imaging, image-based quantitation of bone uptake (knee). Particulars: BALB/c mouse, i.v., 24 h p.i., mean of left and right knees, n = 1. The format is in vivo, BALB/c mice. As for the experimental part:
Micro-Positron Emission Tomography/computer tomography (MicroPET/CT) imaging studies were carried out using an Inveon microPET/CT scanner (Siemens Preclinical Solutions, Knoxville, TN, USA). Healthy female BALB/c mice were injected intravenously with 5 MBq of either [^89Zr]Zr-FSC(succ)3 (16 µg, n = 1) or [^89Zr]Zr-TAFC (13 µg, n = 1). MicroPET/CT images were acquired under general anesthesia (isoflurane/O2) for 20 min. Imaging data were recorded via static scans at 80 min and 24 h p.i. The microPET/CT scans were reconstructed and merged with OSEM3D-SPMAP (PET, matrix size 256 × 256) and Feldkamp (CT, Shepp Logan filter). For evaluation of bone uptake, image-based quantitation was carried out by selecting volumes of interest around each knee region and % ID/cm^3 were calculated for both time points (VivoQuant image analysis software, Invicro LLC, Boston, MA, USA) and expressed as mean values of left and right knees to compare both compounds.

A further series in a line: Solubility in water. The format is physicochemical. Particulars: unlabeled chelator.
Series [8] in a line: Transchelation study: [89Zr]Zr-DFO with 1000-fold molar excess of FSC(succ)2AA or FSC(succ)3. The format is physicochemical. Particulars: 1000-fold molar excess of FSC(succ)2AA or FSC(succ)3, RT, within 1 h. The protocol: as §2
On the set-up of series [9]: method as in PMID 25941834. Particulars: previously reported data; cited from earlier work.
Details of series [10]: method as in PMID 25941834. Particulars: human serum, incubation time 7 days, previously reported data; cited from earlier work.
Details of series [11]: method as in PMID 25941834. Particulars: incubation time 7 days, previously reported data; cited from earlier work.

The structures appear in SMILES notation. Entries after “also recorded” stand apart in the source; their conditions may differ. Read-outs that look alike come from different tables or passages of the source.

For `CC(=O)NC1CCCN([O-])C(=O)C=C(C)CCOC(=O)C(NC(=O)CCC(=O)[O-])CCCN([O-])C(=O)C=C(C)CCOC(=O)C(NC(=O)CCC(=O)[O-])CCCN([O-])C(=O)C=C(C)CCOC1=O.[89Zr+4]` (mixture of isomers) [[^89Zr]Zr-FSC(succ)2AA], the Log D (as a rule, the decadic logarithm of the distribution of all forms, ionised or not, between an organic phase and buffer at a given pH) in [1] was −3.3 ± 0.1. Further, the “Protein Binding (%)” value in series [2] is recorded as 5.9 ± 1.6%. Further, the “Stability in Human Serum (%)” value in series [3] worked out at 99.4%. Also, the intact complex in series [4] (pH 6, 37 °C) was 76%; in series [5] it was 30.8%. Besides, the resistance to transchelation entry in [4] (pH 7, over seven days, 37 °C) was “excellent resistance to transchelation”.

As to `CC1=CC(=O)N([O-])CCCC(NC(=O)CCC(=O)[O-])C(=O)OCCC(C)=CC(=O)N([O-])CCCC(NC(=O)CCC(=O)O)C(=O)OCCC(C)=CC(=O)N([O-])CCCC(NC(=O)CCC(=O)[O-])C(=O)OCC1.[89Zr+4]` (mixture of isomers) [[^89Zr]Zr-FSC(succ)3], the log distribution coefficient (Log D) in [1] is −3.5 ± 0.4. Moreover, the “Protein Binding (%)” value in series [2] worked out at 8.3 ± 3.5%. For the same compound, the “Stability in Human Serum (%)” value in series [3] amounted to 99.5%. Moreover, the intact complex in series [4] (pH 4, day 7, 37 °C) was found to be 87.9%. Further, the intact complex in series [4] (pH 6, 37 °C) is 97.8%. In addition, the resistance to transchelation entry in series [4] (pH 7, over seven days, 37 °C) is “excellent resistance to transchelation”. Besides, in series [5], the intact complex is on record as 62.1%. In addition, in series [6], the activity in blood is recorded as 0.11 ± 0.08 % ID/g, the activity in bone is on record as 0.24 ± 0.04 % ID/g, the activity in heart is 0.28 ± 0.08 % ID/g and the activity in lung was 0.21 ± 0.04 % ID/g. In series [6], this compound registered an activity in muscle of 0.25 ± 0.07 % ID/g. In addition, the “bone uptake in the knee” value in series [7] is 0.026 % ID/cm^3.

Regarding `CC(=O)NC1CCCN(O)C(=O)/C=C(/C)CCOC(=O)C(NC(=O)CCC(=O)O)CCCN(O)C(=O)/C=C(/C)CCOC(=O)C(NC(=O)CCC(=O)O)CCCN(O)C(=O)/C=C(/C)CCOC1=O` (stereo not drawn) [FSC(succ)2AA, Fusarinine C(succ)2AA], the solubility in water result in the series “Solubility in water” is “high solubility in water”.

As to `C/C1=C/C(=O)N(O)CCCC(NC(=O)CCC(=O)O)C(=O)OCC/C(C)=C\C(=O)N(O)CCCC(NC(=O)CCC(=O)O)C(=O)OCC/C(C)=C\C(=O)N(O)CCCC(NC(=O)CCC(=O)O)C(=O)OCC1` (stereo not drawn) [FSC(succ)3, Fusarinine C (succ)3], the solubility in water entry in “Solubility in water” is “high solubility in water”.

`CC(=O)N([O-])CCCCCNC(=O)CCC(=O)N([O-])CCCCCNC(=O)CCC(=O)N([O-])CCCCCN.[89Zr+4]` [[^89Zr]Zr-DFO, ^89Zr-desferrioxamine B]: the “acid dissociation (decomposition)” value in series [4] (pH 4) is “totally decomposing on day 3”. This compound registered a transchelation in series [4] (pH 7, over seven days, 37 °C) of roughly 60%. Moreover, the “transchelation of 89Zr from [89Zr]Zr-DFO to FSC(succ)2AA or FSC(succ)3” value in [8] is on record as “Almost quantitative transchelation; also recorded: total transchelation”. Also, the “Log D” value in [9] was −3.0 ± 0.1. In addition, the “Protein Binding (%)” value in series [10] was 8.7 ± 1.0%. The “Stability in Human Serum (%)” value in [11] was 99.3%.

`CC(=O)NC1CCCN([O-])C(=O)/C=C(/C)CCOC(=O)C(NC(C)=O)CCCN([O-])C(=O)/C=C(/C)CCOC(=O)C(NC(C)=O)CCCN([O-])C(=O)/C=C(/C)CCOC1=O.[89Zr+4]` (stereo not drawn) [[^89Zr]Zr-TAFC, ^89Zr-triacetylfusarinine C, reference compound]: the intact complex was determined as 70.3% in series [4] (pH 4, day 7, 37 °C); 94.4% in series [4] (pH 6, 37 °C); 39.8% in series [5]. The resistance to transchelation entry in [4] (pH 7, over seven days, 37 °C) is reported as “excellent resistance to transchelation”. Besides, in [6], the activity in blood is recorded as 0.05 ± 0.01 % ID/g. Besides, in series [7], the “bone uptake in the knee” value worked out at 0.016 % ID/cm^3. Moreover, the “Log D” value in [9] is recorded as −2.0 ± 0.0. The “Protein Binding (%)” value in series [10] is listed as 6.8 ± 0.5%. Also, the “Stability in Human Serum (%)” value in [11] is on record as 99.5%.
